Results: a melting point compilation (Tetko et al.; mined from patent text by program, amines drawn as free bases though some values may be those of a salt)

Compared with NS(=O)(=O)c1cccc(-c2cc(-c3nc(-c4ccc(C(F)(F)F)nc4)cc(C(F)(F)F)n3)ccn2)c1, Cc1cc(-c2cc(C(F)F)n3ncc(C(=O)Nc4cccc(S(=O)(=O)NC5CC5)c4)c3n2)ccc1C(F)(F)F is lower in melting point: 258 °C for the first, 199 °C for the second.

First: O=c1c(CCCc2ccncc2)cc2cccnc2n1-c1ccc2nonc2c1
Second: O=S(=O)(Nc1nc2ccccc2nc1Nc1cccc2ccccc12)c1ccc(Cl)cc1
The melting point of the first is lower: 192 to 194 °C for the first, 262 to 265 °C for the second.

Compared with Cc1oc(-c2ccccc2)nc1CCOc1ccc(C[C@@H](C(=O)O)N2CCN(S(=O)(=O)c3ccc(F)cc3)CC2)cc1, Cc1oc(-c2ccccc2)nc1COc1ccc(CN(O)C(N)=O)cc1F is lower in melting point: 198 to 200 °C for the first, 143 to 144 °C for the second.

First: CC(C)(C)c1cc(C=C2NC(=O)NC2=O)cc(C(C)(C)C)c1O
Second: Cc1ccccc1C1(O)C=C(C(C)(C)C)C(=O)C(C(C)(C)C)=C1
The melting point of the first is higher: 251 to 252 °C for the first, 168 to 171 °C for the second.

Compared with O=CNc1ccccc1C1=NN(c2ccc(Cl)cc2)C(=O)C1, CC1C(=O)Nc2c(C(=O)c3ccc(Cl)cc3)cccc21 (stereo not given) is lower in melting point: 170 to 172 °C for the first, 130 to 140 °C for the second.

First: Cn1cc2c(c(C#N)c1=O)Nc1ccccc1S2
Second: O=C1NC(=S)C(c2cccc(Cl)c2)C1c1ccccc1 (stereo not given)
The melting point of the first is higher: 292 to 295 °C for the first, 104 to 106 °C for the second.

First: Cc1ccc2oc(NC(CC3CCCCC3)c3ccccn3)nc2c1 (stereo not given)
Second: Cc1cccc2nc3c(cc12)oc1cccc(Cl)c13
The melting point of the first is lower: 80 to 86 °C for the first, 169 to 172 °C for the second.

Compared with CC(=O)N(C#N)Cc1ccc(CN(C#N)C(C)=O)cc1, CC(=O)Nc1ccc(C=C(C#N)C(=O)OCC[Si](C)(C)C)cc1 is lower in melting point: 160 to 162 °C for the first, 136 °C for the second.

First: CC(C)(C(=O)C(Oc1ccc(Cl)cc1Cl)n1ccnc1)C(Cl)Cl (stereo not given)
Second: COc1cc(N)c(Cl)cc1C(=O)N[C@H]1CCN(CCCC(=O)c2cccnc2)C[C@H]1OC (relative stereo)
The melting point of the first is lower: 125 to 126 °C for the first, 166 °C for the second.

First: Cc1c(F)c(F)c(C(=O)NC2CCCCCC2)c(F)c1F
Second: CC1(C2CCCC2)Cc2cc(OS(=O)(=O)C(F)(F)F)c(Cl)c(Cl)c2C1=O (single isomer, unassigned; (+))
The melting point of the first is higher: 164 to 165 °C for the first, 104 to 106 °C for the second.

First: CCOc1nc(C2CC2)nc(OCC)c1C=O
Second: CCCC(=NOCC)C1=C(O)CC(c2ccc(S(C)=O)cc2)CC1=O (stereo not given)
The melting point of the first is higher: 86 to 87 °C for the first, 72 to 74 °C for the second.

Compared with C=C(C)N(c1c(C)cccc1C)S(C)(=O)=O, COC(=O)C=Cc1ccc2c(c1)cc(C)n2S(=O)(=O)c1ccccc1 is higher in melting point: 80 to 81 °C for the first, 126 to 128 °C for the second.

First: CCCCCCCCc1ccc(C(=O)Cc2cccc(C#N)c2)cc1
Second: O=C(c1ccc(OCC2CO2)cc1)c1cccc2[nH]ccc12 (stereo not given)
The melting point of the first is lower: 59 to 64 °C for the first, 96 °C for the second.

First: O=C(O)Cc1c(-c2ccccc2)c(=O)[nH]c2cc(Cl)ccc12
Second: O=C(O)c1ccc(Cl)cc1NC(=O)C(CS)Cc1ccccc1 (stereo not given)
The melting point of the first is higher: 175 °C for the first, 134 to 136 °C for the second.

Compared with COC(=O)NNC(=O)Nc1cc(Cl)cc(Cl)c1, O=C(O)c1c[nH]c(Sc2cc(Cl)cc(Cl)c2)c1 is lower in melting point: 246 °C for the first, 169 to 172 °C for the second.

First: CCOC(=O)Oc1ccc(S(=O)(=O)N2c3cc(Br)ccc3-n3cccc3[C@@H]2CC)cc1
Second: CCOc1ccc(C(=O)c2c(-c3ccc(OC)cc3)sc3cc(OC)ccc23)cc1
The melting point of the first is higher: 137 to 139 °C for the first, 124 to 125 °C for the second.

Compared with COc1ccc(C(=S)Nc2ccccc2)cc1NS(=O)(=O)c1cc(Cl)cc(Cl)c1, CC(=O)Nc1ccc(Nc2ccccc2)cc1 is lower in melting point: 206 to 208 °C for the first, 169 to 171 °C for the second.

First: CSc1nnc(-c2ccccc2)n1C
Second: O=C(Nc1nnc(SCc2ccccc2)s1)C1CC1
The melting point of the first is lower: 134 to 135 °C for the first, 182 to 184 °C for the second.

Compared with Cc1cc(C)c2c(c1)SCC2c1ccc(C(C)C)cc1 (stereo not given), COC(=O)c1c(C)cc(-c2ccccc2)nc1-c1cccc([N+](=O)[O-])c1 is higher in melting point: 74 to 75 °C for the first, 105 to 106 °C for the second.

Compared with FC1(F)c2ccccc2Cc2ccccc2C1(F)F, Cc1cc2ccc3c(c2o1)OC(CN1CC=C(c2c[nH]c4ccccc24)CC1)CO3 (stereo not given) is higher in melting point: 53.5 to 55 °C for the first, 198 to 200 °C for the second.

Compared with C=CC1(C=CC)OC(=O)N(c2cc(Cl)cc(Cl)c2)C1=O (stereo not given), CNc1c(S(=O)(=O)C(F)(F)F)c(C#N)nn1-c1c(Cl)cc(C(F)(F)F)cc1Cl is higher in melting point: 141 °C for the first, 227 °C for the second.

First: Cc1cc(-c2cc(C(F)(F)F)n3cnc(C#N)c3n2)ccc1C(F)(F)F
Second: Cc1cc(OCc2cnc(-c3ccc(C(F)(F)F)cc3)cc2C(F)(F)F)ccc1OC(C)(C)C(=O)O
The melting point of the first is higher: 217 °C for the first, 148 to 149 °C for the second.

First: COc1cc(C#N)c2c(c1OC)C(=O)CC2
Second: COc1ccc(COc2cc(C)nc3c(O)cccc23)cc1OC
The melting point of the first is higher: 150 °C for the first, 129 to 131 °C for the second.

First: CCOC(=O)c1c(S(C)(=O)=O)nc2sccn12
Second: COC(=O)Cc1sc(Sc2cc(C(=O)OC)nc(SC)n2)nc1C
The melting point of the first is higher: 158 to 161 °C for the first, 131 to 133 °C for the second.

First: CC[C@H](C)COc1ccc(O)cc1
Second: Cc1cc(N)n(-c2ccc(Cl)nn2)n1
The melting point of the first is lower: 44 to 45 °C for the first, 148 to 150 °C for the second.
